In patent US20230278972A1, “SUBSTITUTED HALOALKYL SULFONANILIDE HERBICIDES” (FMC Corporation, priority 2020, published 2023):

Assays:
Assay type in all cases: in vivo
[1] = system: kochia (Bassia scoparia); experiment: Test A1 preemergence, kochia
Method in brief: (§1)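 Both timings started from seed in a loam-sand blend. Preemergence pots got a directed soil application immediately; postemergence pots were sprayed when seedlings had one or two leaves and stood 2–10 cm. Each compound was prepared in a non-phytotoxic solvent plus surfactant.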

[2] = system: galium (catchweed bedstraw, Galium aparine); experiment: Test A1 postemergence, galium; details: Postemergence
Method in brief: (§2)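 Herbicidal response was scored on plants treated either preemergence, by directed spray onto soil of a loam–sand blend after sowing, or postemergence on potted plants at the one- to two-leaf stage, 2–10 cm high. Test chemicals were carried in a non-phytotoxic solvent mix with surfactant.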

[3] = system: blackgrass (Alopecurus myosuroides); experiment: Test A1 postemergence, blackgrass; details: Postemergence, 0 to 100 scale (0 no effect, 100 complete control)
Method in brief: as §2

[4] = system: corn (Zea mays); experiment: Test A1 preemergence, corn
Method in brief: as §1

[5] = system: ducksalad (Heteranthera limosa); experiment: Test B1 flooded paddy test, ducksalad; details: 250 g ai/ha, Flood, applied to paddy water, 2-leaf stage, visually evaluated after 10 to 14 days
From the text: A dash (-) response means no test result.

[6] = system: Ryegrass, Italian (Italian ryegrass, Lolium multiflorum); experiment: Test A1 preemergence, Ryegrass, Italian
Method in brief: as §1

[7] = system: soybean (Glycine max); experiment: Test A1 postemergence, soybean; details: Postemergence
Method in brief: as §2

[8] = system: ragweed (common ragweed, Ambrosia artemisiifolia); experiment: Test A1 postemergence, ragweed; details: Postemergence
Method in brief: as §1

[9] = 31 g ai/ha, 0 to 100 scale (0 no effect, 100 complete control)
[10] = 125 g ai/ha, 0 to 100 scale, 0 no effect, 100 complete control
[11] = 31 g ai/ha, 0 to 100 scale (0 no effect, 100 complete control), 10 days

SMILES | Plant response rating, Kochia [1, 9] | Plant response rating, Kochia [1, 10] | Plant response rating, Galium [2, 11] | Plant response rating, Galium ([2]; 125 g ai/ha, 0 to 100 scale) | Plant response rating, Blackgrass ([3]; 31 g ai/ha, 10 days) | Plant response rating, Blackgrass ([3]; 125 g ai/ha) | Plant response rating, Corn [4, 9] | Plant response rating, Corn [4, 10] | Plant response rating, Ducksalad (0 to 100 scale, 0 is no effect, 100 is complete control) [5] | Plant response rating, Ryegrass, Italian [6, 9] | Plant response rating, Ryegrass, Italian [6, 10] | Plant response rating, Soybean [7, 11] | Plant response rating, Soybean ([7]; 125 g ai/ha, 0 to 100 scale) | Plant response rating, Ragweed [8, 11] | Plant response rating, Ragweed ([8]; 125 g ai/ha, 0 to 100 scale)
Cc1cc(C)c(N(COC(=O)C(C)(C)C)S(=O)(=O)C(F)(F)F)cc1C1=NOC2CCCCCC12 (single isomer, unassigned) [Compound 294] | 0 | 60 | 60 | 70 | 0 | 0 | 0 | 0 | 70 | 40 | 90 | 0 | 50 | 30 | 80
Cc1cc(C)c(-n2nccc(C)c2=O)cc1NS(=O)(=O)C(F)(F)F [Compound 281] | 0 | 20 | 0 | 0 | 0 | 0 | 0 | 0 | 0 | 0 | 40 | 50 | 60 | 0 | 70
COc1cnn(-c2cc(NS(=O)(=O)C(F)(F)F)c(C)cc2C)c(=O)c1OC [Compound 282] | 0 | 80 |  | 0 | 0 | 20 | 0 | 50 | 65 | 0 | 40 | 40 | 60 | 60 | 70
Cc1c(NS(=O)(=O)C(F)(F)F)cc(C(=O)N(C)C)c(C)c1Cl [Compound 287] | 20 | 60 | 0 | 0 | 0 | 0 | 0 | 0 | 75 | 70 | 90 | 30 | 50 | 60 | 70
Cc1c(NS(=O)(=O)C(F)(F)F)cc(C(=O)N(C)C)c(C)c1C [Compound 288] | 0 | 40 | 0 | 0 | 0 | 0 | 0 | 0 | 60 | 0 | 0 | 30 | 40 | 30 | 80
Cc1c(NS(=O)(=O)C(F)(F)F)cc(C(=O)N2CCOCC2)c(C)c1C [Compound 289, 1,1,1-Trifluoro-N-[2,3,4-trimethyl-5-(4-morpholinylcarbonyl)phenyl]methanesulfonamide] | 20 | 80 | 60 | 80 | 0 | 10 | 0 | 30 | 95 | 20 | 70 | 40 | 50 | 70 | 80
Cc1c(NS(=O)(=O)C(F)(F)F)cc(C(=O)N2CCOCC2)c(C)c1Cl [Compound 290] | 20 | 30 | 80 | 90 | 0 | 0 | 0 | 20 | 65 | 30 | 60 | 0 | 20 | 60 | 70
Cc1cc(C)c(C2=NOC3CCCCCC23)cc1NS(=O)(=O)C(F)(F)F (stereo not shown) [Compound 292] | 30 | 80 | 80 | 80 | 0 | 0 | 0 | 40 | 95 | 60 | 100 | 20 | 80 | 20 | 40
Cc1cc(C)c(N(C(=O)OC(C)C)S(=O)(=O)C(F)(F)F)cc1C1=NOC2CCCC12 (stereo not shown) [Compound 295] | 0 | 30 | 50 | 60 | 0 | 0 | 0 | 0 | 0 | 40 | 70 | 20 | 50 | 50 | 70
Cc1cc(C)c(C2=NOC3COCC23)cc1NS(=O)(=O)C(F)(F)F (stereo not shown) [Compound 297] | 80 | 90 | 80 | 90 | 0 | 0 | 0 | 20 | 50 | 0 | 90 | 30 | 50 | 30 | 70
Cc1cc(C)c(N(C(=O)OCC(C)C)S(=O)(=O)C(F)(F)F)cc1C1=NOC2CCCC12 (stereo not shown) [Compound 299] | 0 | 50 | 40 | 60 | 0 | 0 | 0 | 0 | 55 | 50 | 60 | 40 | 50 | 40 | 70
Cc1cc(C)c(N(COC(=O)C(C)(C)C)S(=O)(=O)C(F)(F)F)cc1C1=NOC2COCC12 (stereo not shown) [Compound 301] | 30 | 80 | 70 | 90 | 0 | 0 | 0 | 10 | 50 | 20 | 90 | 10 | 40 | 60 | 70
Cc1cc(Br)c(C2=NOC3CCCC23)cc1NS(=O)(=O)C(F)(F)F (stereo not shown) [Compound 302] | 30 | 80 | 0 | 0 | 0 | 0 | 0 | 0 | 70 | 50 | 90 | 20 | 40 | 30 | 70
Cc1cc(F)c(NS(=O)(=O)C(F)(F)F)cc1C1=NOC2(CCCC2)C1 [Compound 303] | 20 | 20 | 60 | 90 |  |  | 0 | 90 | 0 | 50 | 100 | 30 | 50 | 30 | 80
CCc1cc(C)c(NS(=O)(=O)C(F)(F)F)cc1C1=NOC2CCCC12 (stereo not shown) [Compound 305] | 0 | 40 | 50 | 60 | 0 | 0 | 10 | 90 | 90 | 40 | 90 | 10 | 50 | 0 | 60
Cc1cc(Br)c(NS(=O)(=O)C(F)(F)F)cc1C1=NOC2(CCCC2)C1 [Compound 309] | 0 | 50 | 40 | 80 |  |  | 0 | 0 | 60 | 60 | 90 | 10 | 30 | 0 | 50
